Measured values: PMC2656767 (The Journal of organic chemistry, 2009)

What was measured:
[1] = test system: wild type (ATCC 90027) C. albicans; assay: Modified disk diffusion assay, wild type C. albicans; assay type: cell-based, Candida albicans; conditions: wild type strain, loads of 1-5 μg/disk
[2] = test system: amphotericin B resistant C. albicans (ATCC 200955); assay: Modified disk diffusion assay, amphotericin B resistant C. albicans; assay type: cell-based; conditions: amphotericin B-resistant strain, loads of 1-5 μg/disk

Theopapuamide A [compound 7]
antifungal activity (in words) [1]: activity
antifungal activity (in words) [2]: activity
